Experimental data from patent publication US5420126A, “3,4-dihydro-2H-1,4-benzoxazine derivatives and pharmaceutical compositions containing the same” (Yamanouchi Pharmaceutical Co., Ltd., priority 1989, dated 1995).

Tests used:
[1] = system: 3,4-diaminopyridine-induced rhythmic contractions of left coronary artery ring segments; test: Inhibition of 3,4-diaminopyridine-induced rhythmic contractions (frequency) in isolated coronary artery rings; parameters: species or system Mongrel dogs; conditions: Canis lupus familiaris; isolated dog coronary artery rings; 3,4-diaminopyridine 10 mM; 37° C.; read-out: IC50, inhibitory effect on the frequency of 3,4-diaminopyridine-induced rhythmic contractions
Description: (§1) The compounds, when given intravenously, reduced the blood pressure and increased the coronary blood flow in the dose range of 1 to 1,000 μg/kg and, when administered into the coronary artery, they dilated the coronary artery in the dose range of 0.3 to 100 μg.
(1) Effects on 3,4-diaminopyridine-induced rhythmic contractions
The method of Uchida and Sugimoto (Myakkangaku, 24, 133-143, 1984) was used. Mongrel dogs of either sex were anesthetized with pentobarbital (30 mg/kg i.v.) and bled to death and, then, the heart was excised from each animal. In the Krebs-Henseleit solution, the left coronary circumflex branch or the anterior descending branch was isolated and cut into rings, about 2 mm in width. The ring segment was fixed to a stainless steel hook and suspended in a Krebs-Henseleit bath (37° C.) aerated with 95%O2 -5%CO2 gas mixture under a tension load of 1.0 g, and isometric contractions were recorded.
After the specimen was stabilized for 30 minutes, rhythmic contractions were induced by addition of 3,4-diaminopyridine (10 mM). When the amplitude and frequency of rhythmic contractions became substantially steady, cumulative addition of the test compound to the organ bath was started. The concentration-response curves for the amplitude and frequency of contractions were constructed and the efficacy was evaluated.
The inhibitory effect on the frequency of contractions is shown in Column (1) in Table 1.

[2] = system: cardiovascular system (mean blood pressure, coronary blood flow); test: Effects on the cardiovascular system in anesthetized dogs (i.v.); type: in vivo, Mongrel dogs
Description: as §1
(2) Effects on the cardiovascular system
Mongrel dogs of either sex were anesthetized with pentobarbital, 30 mg/kg i.v. and, after tracheal intubation, the experiment was performed under artificial respiration. After thoracotomy, heart rate, blood pressure, left ventricular pressure, max dLVP/dt, pulmonary arterial pressure, central venous pressure, cardiac output and coronary blood flow were measured. The test compound was administered through a cannula indwelt in the femoral vein and the efficacy was evaluated.
(3) Coronary vasodilating effect

[3] = system: spontaneously hypertensive rats (SHR); test: Hypotensive effect, oral, in conscious spontaneously hypertensive rats (SHR); type: in vivo, Spontaneously hypertensive rats (SHR) of Okamoto-Aoki strain
Description: (§2) Then, in connection with Examples 1 and 2, the hypotensive effect of the test compound given orally in conscious spontaneously hypertensive rats (SHR) and the intravenous acute toxicity in mice were determined.
Spontaneously hypertensive rats (SHR) of Okamoto-Aoki strain were anesthetized with pentobarbital, 60 mg/kg i.p. Then, a cannula for blood pressure measurement was indwelt in the left common carotid artery and the other end of the cannula was led out extracorporeally from the posterior neck. After a stabilization period of 4-5 postoperative days, the blood pressure and heart rate were measured without restraint under no anesthesia. The test compound was suspended in 0.5% methylcellulose solution and the suspension was orally administered in a volume of 5 ml/kg and the efficacy was evaluated.

[4] = Acute toxic effect (LD50), intravenous; conditions: mouse, in vivo, i.v. (caudal vein), male mice, up and down method, read-out: LD50, acute toxic dose
Description: as §2
The acute toxic dose (LD50) of the test compound administered into the caudal vein was determined by the up and down method in male mice.

| SMILES | IC50 [1] [nM] | MBP: mean blood pressure-lowering effect (percent reduction) ([2]; 3 μg/kg i.v.) | MBP: mean blood pressure-lowering effect ([3]; 30 μg/kg p.o.) | LD50 [4] [mg/kg] | MBP: mean blood pressure-lowering effect (percent reduction) ([2]; 10 μg/kg i.v.) | MBP: mean blood pressure-lowering effect ([3]; 300 μg/kg p.o.) |
| --- | --- | --- | --- | --- | --- | --- |
| CC1(C)CN(c2cccc[n+]2[O-])c2cc([N+](=O)[O-])ccc2O1 [Example 1, 2-(3,4-dihydro-2,2-dimethyl-6-nitro-2H-1,4-benzoxazin-4-yl)pyridine N-oxide] | 10 | -16 Δ% | -25 Δ% | 50.4 |  |  |
| CC1(C)CN(c2cccc[n+]2[O-])c2cc(C#N)ccc2O1 [Example 2, 2-(6-cyano-3,4-dihydro-2,2-dimethyl-2H-1,4-benzoxazin-4-yl)pyridine N-oxide] | 240 |  |  | > 60 | -20 Δ% | -40 Δ% |
| CN(C)C(=O)CN1CC(C)(C)Oc2ccc([N+](=O)[O-])cc21 [Example 56, 2-(3,4-dihydro-2,2-dimethyl-6-nitro-2H-1,4-benzoxazin-4-yl)-N,N-dimethylacetamide] | 20 | -11 Δ% |  |  |  |  |
| CC1(C)CN(N2CCCC2=O)c2cc([N+](=O)[O-])ccc2O1 [41(4), 3,4-dihydro-2,2-dimethyl-4-(2-oxo-1-pyrrolidinyl)-6-nitro-2H-1,4-benzoxazine] | 50 | -20 Δ% |  |  |  |  |
| CC1(C)Oc2ccc(C#N)cc2C(N2CCCC2=O)C1O (centres unmarked) [Cromakalim, reference compound] | 390 |  |  | 49.7 | -28 Δ% | -35 Δ% |
| CC(=O)CN1CC(C)(C)Oc2ccc([N+](=O)[O-])cc21 [Example 38, 4-Acetonyl-3,4-dihydro-2,2-dimethyl-6-nitro-2H-1,4-benzoxazine] | 70 |  |  |  | -23 Δ% |  |
| CC1(C)CN(C2=CCCC2=O)c2cc([N+](=O)[O-])ccc2O1 [Example 70, 3,4-Dihydro-2,21-dimethyl-6-nitro-4-(5-oxo-1-cyclopenten-1-yl) -2H-1,4-benzoxazine] | 10 |  |  |  | -9 Δ% |  |
